Entries after “also recorded” stand apart in the source; their conditions may differ. One block for each compound: values may come before it.
How the values were obtained:
[1] = test system: Abcc6−/− mice (mouse model of PXE); experiment: Prevention study: histologic (von Kossa) evaluation of vibrissae calcification in muzzle skin; format: in vivo; settings: for calcification in the dermal sheath of vibrissae in muzzle skin (von Kossa) / inhibition of ectopic calcification: osmotic pump
Protocol: (§1) Abcc6^−/− knock-out mice (Abcc6^−/−) on C57BL/6J background were generated as described previously (J. F. Klement et al., Mol Cell Biol 2005, 25, 8299). C57BL/6J mice from The Jackson Laboratory (Bar Harbor, ME) were used as wild-type controls (WT). In prevention study, 6-week-old Abcc6^−/− mice were administered with (I a) by periodic subcutaneous injections or continuous administration via subcutaneous ALZET osmotic pump model 2006 (DURECT Corp, Cupertino, CA) for duration of 6 weeks. In reversal study, 12-week-old Abcc6^−/− mice were administered (I a) at 4 mg/kg/day via osmotic pumps for 12 weeks. All mice were maintained on a standard diet and sacrificed at 12 weeks of age, 6 weeks after initiation of treatment (prevention study), or at 24 weeks of age, 12 weeks after initiation of treatment (reversal study). All protocols were approved by the Institutional Animal Care and Use Committee of Thomas Jefferson University.
(§2) Muzzle skin biopsies (left side) from euthanized mice were collected and fixed in 10% phosphate-buffered formalin and embedded in paraffin. Paraffin sections (6 μm) were stained with Hematoxylin and Eosin or von Kossa using standard procedures. To quantify the mineral deposition, muzzle skin biopsies (right side) were harvested and decalcified with 1.0 M HCl for 48 hours at room temperature. Solubilized calcium was then determined by a colorimetric assay (J. Huang et al., J Invest Dermatol 2019, 139, 1254; Q. Li, J. Huang et al., J Invest Dermatol 2019, 139, 360). The values were normalized to tissue weight. Whole blood was collected by retro-orbital bleeding or cardiac puncture. For subcutaneously injected mice, whole blood was collected 30 minutes after injection of (I a). Whole blood was collected at 2 days, 3 weeks, and 6 weeks after treatment initiation in mice receiving (I a). The concentrations of (I a) in heparin plasma were analyzed on an ultra-fast liquid chromatography, as described previously (A. E. Schantl et al., Nat Commun 2020, 11, 721). The data was analyzed using Kruskal-Wallis nonparametric test.
The Abcc6^−/− mice were administered (I a) by subcutaneous implantation of osmotic pumps at doses of 0.16, 0.8, 4, 20, and 100 mg/kg/day. The untreated wild-type and Abcc6^−/− mice served as negative and positive controls of ectopic calcification. Treatment was initiated at 6 weeks of age, a time point at the earliest stages of ectopic calcification in the Abcc6^−/− mice. The extent of ectopic calcification after 6 weeks of treatment was analyzed by two independent assays measuring calcification in the dermal sheath of vibrissae in muzzle skin, an early and reliable biomarker in this mouse model of PXE. One piece of muzzle skin was processed for semi-quantitative histological evaluation. […] The therapeutic effects of (I a) were substantiated by the calcium content in another muzzle skin biopsy measured using a quantitative chemical assay (FIG. 2A).
The inventors next examined whether periodic, bolus subcutaneous injections of (I a) at the same dose of 4 mg/kg/day, would have similar therapeutic benefits. Six-week-old Abcc6^−/− mice were administered (I a) by subcutaneous injections three times per week corresponding to 4 mg/kg/day. […] Thus, subcutaneous injection of (I a) is effective, albeit less than with continuous delivery at the same dose of 4 mg/kg/day on inhibition of ectopic calcification.
Three additional dose levels of (I a) at weekly subcutaneous injections for a duration of 6 weeks were tested to evaluate the inhibitory effects of (I a) (FIG. 1A). […] The semi-quantitative histologic evaluations of (I a) treatment were consistent with the calcium contents in the muzzle skin measured by a chemical assay (FIG. 2A).

[2] = test system: Abcc6−/− mice (mouse model of PXE); experiment: Treatment (reversal) study: histopathology and calcium assay of muzzle skin in old mice; format: in vivo; settings: 12-week-old mice, osmotic pump 4 mg/kg/day for 12 weeks, analysed at 24 weeks of age
Protocol: as §1, with “All mice were maintained on a standard diet and sacrificed at 12 weeks of age, 6 weeks after initiation of treatment (prevention study), or at 24 weeks of age, 12 weeks after initiation of treatment (reversal study). All protocols were approved by the Institutional Animal Care and Use Committee of Thomas Jefferson University.” left out
Muzzle skin biopsies (left side) from euthanized mice were collected and fixed in 10% phosphate-buffered formalin and embedded in paraffin. […] To quantify the mineral deposition, muzzle skin biopsies (right side) were harvested and decalcified with 1.0 M HCl for 48 hours at room temperature. Solubilized calcium was then determined by a colorimetric assay (J. Huang et al., J Invest Dermatol 2019, 139, 1254; Q. Li, J. Huang et al., J Invest Dermatol 2019, 139, 360). […] The concentrations of (I a) in heparin plasma were analyzed on an ultra-fast liquid chromatography, as described previously (A. E. Schantl et al., Nat Commun 2020, 11, 721). The data was analyzed using Kruskal-Wallis nonparametric test. […]

[3] = subcutaneous administration, Sprague Dawley rats; cited from earlier work
[4] = Profile of (I a) compared to pyrophosphate and bisphosphonates
[5] = Plasma concentrations of (I a) in treated Abcc6−/− mice; format: in vivo, mouse
Protocol: as §2
(I a) was undetectable in plasma of untreated Abcc6^−/− mice.
The Tmax of (I a) in plasma after subcutaneous administration in Sprague Dawley rats was reported to be about 30 minutes after injection, the inventors therefore measured (I a) concentrations in plasma 30 minutes after injection in the Abcc6^−/− mice.

[6] = test system: Abcc6−/− mice (mouse model of PXE); experiment: Prevention study: quantitative chemical calcium assay of muzzle skin biopsies; format: in vivo; settings: 6 weeks
Protocol: as §1
Muzzle skin biopsies (left side) from euthanized mice were collected and fixed in 10% phosphate-buffered formalin and embedded in paraffin. […] To quantify the mineral deposition, muzzle skin biopsies (right side) were harvested and decalcified with 1.0 M HCl for 48 hours at room temperature. Solubilized calcium was then determined by a colorimetric assay (J. Huang et al., J Invest Dermatol 2019, 139, 1254; Q. Li, J. Huang et al., J Invest Dermatol 2019, 139, 360). […] The concentrations of (I a) in heparin plasma were analyzed on an ultra-fast liquid chromatography, as described previously (A. E. Schantl et al., Nat Commun 2020, 11, 721). The data was analyzed using Kruskal-Wallis nonparametric test.
The Abcc6^−/− mice were administered (I a) by subcutaneous implantation of osmotic pumps at doses of 0.16, 0.8, 4, 20, and 100 mg/kg/day. […] The extent of ectopic calcification after 6 weeks of treatment was analyzed by two independent assays measuring calcification in the dermal sheath of vibrissae in muzzle skin, an early and reliable biomarker in this mouse model of PXE. One piece of muzzle skin was processed for semi-quantitative histological evaluation. […]

[7] = test system: cardiovascular calcifications; settings: patients on hemodialysis, 1-year treatment; cited from earlier work

subcutaneous bioavailability [4]: high | plasma concentrations versus dose ([5]; osmotic pump, 0.16 to 100 mg/kg/day): dose-dependent
SMILES: COCCOCCOC1C(OP(=O)(O)O)C(OCCOCCOC)C(OP(=O)(O)O)C(OP(=O)(O)O)C1OP(=O)(O)O (centres unmarked) [(I a), bis-oligoethylene myo-inositol tetrakisphosphate]
calcification in the dermal sheath of vibrissae in muzzle skin (von Kossa) ([1]; 0.16 mg/kg/day, 6 weeks): no effects | calcification in the dermal sheath of vibrissae in muzzle skin (von Kossa) ([1]; 0.8 mg/kg/day, 6 weeks): evident but significantly reduced calcification | calcification in the dermal sheath of vibrissae in muzzle skin (von Kossa) ([1]; 4 mg/kg/day (and above), 6 weeks, from 6 weeks of age, 4 mg/kg/day): very little, if any, calcification; also recorded: little, if any, calcification; also recorded: completely prevented ectopic calcification; also recorded: complete response | inhibition of ectopic calcification ([1]; 4 mg/kg/day, 6 weeks): ~100% | inhibition of ectopic calcification ([1]; 100 mg/kg/day, 6 weeks): ~100% | calcification, subcutaneous injections overall ([1]; subcutaneous injections at different doses and frequencies (thrice weekly and once weekly)): decreased calcification; also recorded: prevented calcification | calcification in the muzzle skin (histology) ([1]; subcutaneous injections three times per week corresponding to 4 mg/kg/day, 6 weeks): significantly reduced calcification | ectopic calcification in the muzzle skin (histology) ([1]; weekly subcutaneous injection, 0.8 mg/kg/day, 6 weeks): significantly reduced ectopic calcification | calcification in the muzzle skin (histology) ([1]; weekly subcutaneous injection, 4 mg/kg/day, 6 weeks): significantly reduced calcification | degree of ectopic calcification in muzzle skin after treatment [2]: prevented further calcification; also recorded: calcification similar to 12-week-old Abcc6^−/− control mice; also recorded: stabilized existing calcification | degree of ectopic calcification in muzzle skin after treatment ([2]; listed as INS-3001): stabilize existing calcification | Tmax in plasma [3]: about 30 minutes | anti-osteoclastic activity [4]: no anti-osteoclastic activity | local tolerability [4]: good | plasma levels over time ([5]; 2 days, 3 weeks and 6 weeks after implantation of the osmotic pump): remained largely constant; also recorded: largely consistent during treatment | plasma levels 30 minutes after subcutaneous injection ([5]; bolus subcutaneous injection versus pump administered groups): much higher than that in the pump administered groups | plasma concentrations versus dose, all groups ([5]; osmotic pump (prior to sacrifice) or 30 minutes after subcutaneous injection): scaled relatively well with the dose administered | minimum active dose / minimum effective dose ([6]; continuous osmotic pump administration): 0.8 mg/kg/day | inhibition of ectopic calcification by calcium assay ([6]; osmotic pump, 0.8 mg/kg/day): 59% | inhibition of ectopic calcification by calcium assay ([6]; subcutaneous injections three times per week corresponding to 4 mg/kg/day): 63%

SMILES: O=P(O)(O)O[C@H]1[C@H](OP(=O)(O)O)[C@@H](OP(=O)(O)O)[C@H](OP(=O)(O)O)[C@@H](OP(=O)(O)O)[C@H]1OP(=O)(O)O [IP6]
progression of cardiovascular calcifications [7]: stop the progression, albeit without regression

— US20240100074A1, “Clinical Dosing Schedule of Inositol Phosphate Oligo(Ethylene Glycol) Compounds” (VIFOR (INTERNATIONAL) AG, priority 2021, published 2024)
